Laboratory results from ChEMBL document CHEMBL3822387 (Bioorg Med Chem, 2016).
pIC50: −log10 of the molar value. Active and inactive are the calls of the source. No cut-off for these calls is given here.

Key:
Acetylcholinesterase [1] = target: T1, Acetylcholinesterase (Homo sapiens, UniProt P22303); assay: Mixed-type inhibition of ACHE (unknown origin) using acetylcholine iodide as substrate by Line weaver-Burk reciprocal plot analysis
Cholinesterase [2] = target: T2, Cholinesterase (Homo sapiens, UniProt P06276); assay: Competitive inhibition of BCHE (unknown origin) using […] as substrate by Line weaver-Burk reciprocal plot analysis
T2 sequence (P06276 whole entry): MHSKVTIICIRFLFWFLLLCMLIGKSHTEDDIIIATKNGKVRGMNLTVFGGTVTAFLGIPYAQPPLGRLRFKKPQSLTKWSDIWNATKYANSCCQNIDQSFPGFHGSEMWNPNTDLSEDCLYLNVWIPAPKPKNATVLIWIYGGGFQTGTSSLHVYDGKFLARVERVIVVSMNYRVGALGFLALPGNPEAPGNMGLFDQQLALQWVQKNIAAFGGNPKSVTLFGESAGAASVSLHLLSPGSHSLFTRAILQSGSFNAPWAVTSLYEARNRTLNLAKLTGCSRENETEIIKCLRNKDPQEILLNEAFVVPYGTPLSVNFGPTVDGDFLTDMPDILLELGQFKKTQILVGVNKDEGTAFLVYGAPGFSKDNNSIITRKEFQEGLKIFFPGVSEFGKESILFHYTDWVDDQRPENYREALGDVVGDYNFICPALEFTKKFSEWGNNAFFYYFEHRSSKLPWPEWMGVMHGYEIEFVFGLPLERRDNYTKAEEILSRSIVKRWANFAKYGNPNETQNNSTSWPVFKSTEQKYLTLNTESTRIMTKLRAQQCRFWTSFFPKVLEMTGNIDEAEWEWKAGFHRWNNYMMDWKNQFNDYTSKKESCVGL

[3] = Metal chelating activity of the compound assessed as compound-Cu2+ complex formation by measuring bathochromic shift by UV-vis spectroscopy; type: physicochemical
[4] = Metal chelating activity of the compound assessed as compound-Fe2+ complex formation by measuring maximum absorption wavelength range by UV-vis spectroscopy (reference value: 212 nm); type: physicochemical
[5] = Metal chelating activity of the compound assessed as compound-Fe3+ complex formation by UV-vis spectroscopy by measuring maximum absorption wavelength range by UV-vis spectroscopy (reference value: 212 nm); type: physicochemical
[6] = Metal chelating activity of the compound assessed as compound-Zn2+ complex formation by UV-vis spectroscopy by measuring maximum absorption wavelength range by UV-vis spectroscopy (reference value: 212 nm); type: physicochemical
[7] = Cytotoxicity against rat PC12 cells assessed as reduction in cell viability at 1 to 50 uM measured after 24 hrs by MTT assay; type: cell-based; settings: pc-12, 24 h
PC-12 [8] = assay: Neuroprotective activity against H2O2-induced damage in rat PC12 cells assessed as cell viability at 1 to 10 uM preincubated for 2 hrs followed by H2O2 addition for 24 hrs by MTT assay; type: functional, cell-based
Acetylcholinesterase [9] = target: Acetylcholinesterase (Electrophorus electricus, UniProt O42275)
Chain of Acetylcholinesterase (Electrophorus electricus, UniProt O42275) (O42275 whole entry): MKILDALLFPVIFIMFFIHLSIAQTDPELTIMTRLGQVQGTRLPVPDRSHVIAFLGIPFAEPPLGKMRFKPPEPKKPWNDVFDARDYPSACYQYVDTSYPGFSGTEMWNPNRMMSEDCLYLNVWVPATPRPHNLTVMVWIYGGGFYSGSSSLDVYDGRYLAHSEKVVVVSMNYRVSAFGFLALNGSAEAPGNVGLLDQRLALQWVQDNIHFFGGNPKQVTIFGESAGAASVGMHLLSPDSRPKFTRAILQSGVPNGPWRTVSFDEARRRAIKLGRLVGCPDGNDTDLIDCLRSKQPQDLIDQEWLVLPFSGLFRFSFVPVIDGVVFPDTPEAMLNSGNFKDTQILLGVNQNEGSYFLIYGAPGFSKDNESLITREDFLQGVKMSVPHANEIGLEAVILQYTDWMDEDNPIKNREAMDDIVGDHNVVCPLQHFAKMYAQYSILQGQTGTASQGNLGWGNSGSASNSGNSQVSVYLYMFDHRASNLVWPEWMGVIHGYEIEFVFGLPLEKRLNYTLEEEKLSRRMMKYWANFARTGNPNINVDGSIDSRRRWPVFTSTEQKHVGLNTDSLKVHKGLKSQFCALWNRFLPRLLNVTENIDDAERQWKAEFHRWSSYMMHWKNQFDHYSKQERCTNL
Description: Inhibition of electric eel ACHE preincubated for 6 mins followed by addition of acetylcholine iodide as substrate by Ellman's method

Cholinesterase [10] = target: Cholinesterase (Equus caballus, UniProt P81908)
Chain of Cholinesterase (Equus caballus, UniProt P81908) (P81908 whole entry): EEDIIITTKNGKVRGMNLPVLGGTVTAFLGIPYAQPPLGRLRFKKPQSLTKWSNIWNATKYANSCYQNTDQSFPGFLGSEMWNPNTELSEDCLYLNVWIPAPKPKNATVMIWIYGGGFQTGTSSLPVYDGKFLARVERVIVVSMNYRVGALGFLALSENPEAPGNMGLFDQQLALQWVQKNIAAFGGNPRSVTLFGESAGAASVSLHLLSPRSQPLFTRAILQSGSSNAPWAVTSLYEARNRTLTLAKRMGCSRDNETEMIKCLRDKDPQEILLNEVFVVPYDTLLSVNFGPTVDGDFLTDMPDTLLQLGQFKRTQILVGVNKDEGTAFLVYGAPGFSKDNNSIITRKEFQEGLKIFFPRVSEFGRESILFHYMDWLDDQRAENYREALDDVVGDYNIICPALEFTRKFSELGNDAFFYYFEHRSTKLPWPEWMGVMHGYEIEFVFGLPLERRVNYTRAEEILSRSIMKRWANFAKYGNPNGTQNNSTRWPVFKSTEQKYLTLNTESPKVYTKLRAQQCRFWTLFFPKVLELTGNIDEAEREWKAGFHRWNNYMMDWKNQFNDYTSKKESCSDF
Description: Inhibition of equine BCHE preincubated for 6 mins followed by addition of S-butyrylcholine iodide as substrate by Ellman's method

Acetylcholinesterase [11] = target: T1, Acetylcholinesterase
Description: Inhibition of human erythrocyte ACHE preincubated for 6 mins followed by addition of acetylcholine iodide as substrate by Ellman's method

Cholinesterase [12] = target: T2, Cholinesterase
Description: Inhibition of human serum BCHE preincubated for 6 mins followed by addition of S-butyrylcholine iodide as substrate by Ellman's method

in vitro = settings: PAMPA
PC-12 [13] = assay: Neuroprotective activity against H2O2-induced damage in rat PC12 cells assessed as cell viability at 10 uM preincubated for 2 hrs followed by H2O2 addition for 24 hrs by MTT assay; type: functional, cell-based

T1 sequence (P22303 whole entry): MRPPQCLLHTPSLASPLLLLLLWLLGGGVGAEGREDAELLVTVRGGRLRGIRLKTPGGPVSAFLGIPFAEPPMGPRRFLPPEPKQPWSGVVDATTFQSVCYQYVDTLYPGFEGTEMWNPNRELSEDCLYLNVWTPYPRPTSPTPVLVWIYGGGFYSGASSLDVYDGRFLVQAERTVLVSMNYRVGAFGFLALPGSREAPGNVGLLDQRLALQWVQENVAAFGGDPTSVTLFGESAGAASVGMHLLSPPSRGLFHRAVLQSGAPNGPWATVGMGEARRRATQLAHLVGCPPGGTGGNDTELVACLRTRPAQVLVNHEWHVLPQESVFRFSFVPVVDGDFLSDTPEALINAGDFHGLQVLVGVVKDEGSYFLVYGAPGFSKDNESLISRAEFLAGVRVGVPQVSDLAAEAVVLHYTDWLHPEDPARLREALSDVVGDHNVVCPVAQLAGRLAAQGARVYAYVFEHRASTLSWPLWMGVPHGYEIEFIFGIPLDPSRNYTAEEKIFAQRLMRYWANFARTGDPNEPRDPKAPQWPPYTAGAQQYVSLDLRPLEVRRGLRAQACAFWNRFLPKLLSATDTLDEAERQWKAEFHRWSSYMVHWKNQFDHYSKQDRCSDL

Question: Which inhibition (Acetylcholinesterase [1]) does the source give for O=C(CCc1c[nH]c2ccccc12)NCCC1CCN(Cc2ccccc2)CC1 here?
Answer: Its inhibition is “Active”.

Question: What about the inhibition (Cholinesterase [2]) of the same molecule?
Answer: The inhibition was “Active”.

Question: What about the Activity [3] of the same molecule?
Answer: Its Activity is 219 nm.

Question: What about the Activity [4] of the same molecule?
Answer: Its Activity is 216 nm.

Question: What about the Activity [5] of the same molecule?
Answer: Its Activity is 216 nm.

Question: What about the Activity [6] of the same molecule?
Answer: The Activity was 214 nm.

Question: What about the Activity [7] of the same molecule?
Answer: The Activity was “Non-toxic”.

Question: What about the Activity (PC-12 [8]) of the same molecule?
Answer: Its Activity is “Active”.

Question: And the pIC50 (Acetylcholinesterase [9])?
Answer: The pIC50 was 6.71.

Question: And the pIC50 (Cholinesterase [10])?
Answer: Its pIC50 is 7.14.

Question: What about the pIC50 (Acetylcholinesterase [11]) of the same molecule?
Answer: Its pIC50 is 6.56.

Question: And the pIC50 (Cholinesterase [12])?
Answer: The pIC50 was 7.25.

Question: What about the Papp at 50 ug/ml (in vitro) of the same molecule?
Answer: The Papp at 50 ug/ml was 6.98 ×10⁻⁶ cm/s.

Question: For CC(=O)[C@H]1CC[C@H]2[C@@H]3CCC4=CC(=O)CC[C@]4(C)[C@H]3CC[C@]12C [PROGESTERONE], which Papp at 50 ug/ml (in vitro) is on record?
Answer: The Papp at 50 ug/ml was 5.62 ×10⁻⁶ cm/s.

Question: What does the source list for Cc1ccccc1CN1CCC(C(=O)NCCc2c[nH]c3ccccc23)CC1?
Answer: Activity [7]: Non-toxic; Activity (PC-12 [8]): Active; pIC50 (Acetylcholinesterase [9]): 5.65; pIC50 (Cholinesterase [10]): 5.82; pIC50 (Acetylcholinesterase [11]): 5.45; pIC50 (Cholinesterase [12]): 6.40; Papp at 50 ug/ml (in vitro): 8.9 ×10⁻⁶ cm/s

Question: For Cc1c(C)c2c(c(C)c1O)CCC(C)(C(=O)O)O2 (centres undefined), which Activity (PC-12 [13]) is on record?
Answer: The Activity was “Active”.

Question: With O=C(CCc1c[nH]c2ccccc12)NC1CCN(Cc2ccccc2)CC1 as the molecule, how does the Activity [7] read?
Answer: Its Activity is “Non-toxic”.

Question: And the pIC50 (Acetylcholinesterase [9])?
Answer: Its pIC50 is 5.24.

Question: And the pIC50 (Cholinesterase [10])?
Answer: Its pIC50 is 6.43.

Question: What about the pIC50 (Acetylcholinesterase [11]) of the same molecule?
Answer: Its pIC50 is 5.08.

Question: And the pIC50 (Cholinesterase [12])?
Answer: The pIC50 was 6.92.

Question: Which Activity [7] does the source give for Cc1ccccc1CN1CCC(CC(=O)NCCc2c[nH]c3ccccc23)CC1 here?
Answer: The Activity was “Non-toxic”.

Question: And the Activity (PC-12 [8])?
Answer: The Activity was “Active”.

Question: And the pIC50 (Acetylcholinesterase [9])?
Answer: Its pIC50 is 6.03.

Question: And the pIC50 (Cholinesterase [10])?
Answer: Its pIC50 is 5.83.

Question: What about the pIC50 (Acetylcholinesterase [11]) of the same molecule?
Answer: The pIC50 was 5.81.

Question: And the pIC50 (Cholinesterase [12])?
Answer: Its pIC50 is 5.85.

Question: And the Papp at 50 ug/ml (in vitro)?
Answer: The Papp at 50 ug/ml was 6.91 ×10⁻⁶ cm/s.

Question: For COc1ccc2[nH]cc(CCNC(=O)C3CCN(Cc4ccccc4C)CC3)c2c1, which Activity [7] is on record?
Answer: Its Activity is “Non-toxic”.

Question: And the Activity (PC-12 [8])?
Answer: Its Activity is “Active”.

Question: And the pIC50 (Acetylcholinesterase [9])?
Answer: Its pIC50 is 5.35.

Question: What about the pIC50 (Cholinesterase [10]) of the same molecule?
Answer: The pIC50 was 5.49.

Question: And the pIC50 (Acetylcholinesterase [11])?
Answer: Its pIC50 is 5.13.

Question: And the pIC50 (Cholinesterase [12])?
Answer: Its pIC50 is 5.52.

Question: What about the Papp at 50 ug/ml (in vitro) of the same molecule?
Answer: Its Papp at 50 ug/ml is 9.37 ×10⁻⁶ cm/s.

Question: With O=C(CC1CCN(Cc2ccccc2)CC1)NCCc1c[nH]c2ccccc12 as the molecule, how does the pIC50 (Acetylcholinesterase [9]) read?
Answer: The pIC50 was 5.68.

Question: What about the pIC50 (Cholinesterase [10]) of the same molecule?
Answer: The pIC50 was 5.96.

Question: What about the pIC50 (Acetylcholinesterase [11]) of the same molecule?
Answer: The pIC50 was 5.42.

Question: What about the pIC50 (Cholinesterase [12]) of the same molecule?
Answer: Its pIC50 is 6.02.

Question: What about the Papp at 50 ug/ml (in vitro) of the same molecule?
Answer: Its Papp at 50 ug/ml is 7.4 ×10⁻⁶ cm/s.

Question: With Cc1ccc(CN2CCC(CC(=O)NCCc3c[nH]c4ccccc34)CC2)cc1 as the molecule, how does the pIC50 (Acetylcholinesterase [9]) read?
Answer: Its pIC50 is 5.71.

Question: And the pIC50 (Cholinesterase [10])?
Answer: Its pIC50 is 5.89.

Question: What about the pIC50 (Acetylcholinesterase [11]) of the same molecule?
Answer: The pIC50 was 5.31.

Question: What about the pIC50 (Cholinesterase [12]) of the same molecule?
Answer: Its pIC50 is 6.54.

Question: For COc1ccc2[nH]cc(CCNC(=O)CC3CCN(Cc4ccccc4C)CC3)c2c1, which Activity [7] is on record?
Answer: The Activity was “Non-toxic”.

Question: What about the Activity (PC-12 [8]) of the same molecule?
Answer: The Activity was “Active”.

Question: And the pIC50 (Acetylcholinesterase [9])?
Answer: Its pIC50 is 5.66.

Question: And the pIC50 (Cholinesterase [10])?
Answer: Its pIC50 is 5.89.

Question: What about the pIC50 (Acetylcholinesterase [11]) of the same molecule?
Answer: The pIC50 was 5.44.

Question: What about the pIC50 (Cholinesterase [12]) of the same molecule?
Answer: The pIC50 was 5.99.

Question: And the Papp at 50 ug/ml (in vitro)?
Answer: Its Papp at 50 ug/ml is 10.9 ×10⁻⁶ cm/s.

Question: With O=C(CC1CCN(Cc2cccc(Cl)c2)CC1)NCCc1c[nH]c2ccccc12 as the molecule, how does the pIC50 (Acetylcholinesterase [9]) read?
Answer: The pIC50 was 5.79.

Question: What about the pIC50 (Cholinesterase [10]) of the same molecule?
Answer: Its pIC50 is 6.02.

Question: With COc1ccc2[nH]cc(CCNC(=O)CC3CCN(Cc4cccc(C)c4)CC3)c2c1 as the molecule, how does the pIC50 (Acetylcholinesterase [9]) read?
Answer: Its pIC50 is 5.02.

Question: What about the pIC50 (Cholinesterase [10]) of the same molecule?
Answer: The pIC50 was 5.36.

Question: And the pIC50 (Acetylcholinesterase [11])?
Answer: Its pIC50 is 4.87.

Question: What about the pIC50 (Cholinesterase [12]) of the same molecule?
Answer: Its pIC50 is 5.85.

Question: With O=C(NCCc1c[nH]c2ccccc12)C1CCN(Cc2ccccc2[N+](=O)[O-])CC1 as the molecule, how does the pIC50 (Acetylcholinesterase [9]) read?
Answer: The pIC50 was 4.50.

Question: What about the pIC50 (Cholinesterase [10]) of the same molecule?
Answer: Its pIC50 is 4.97.

Question: With O=C(CC1CCN(Cc2ccccc2Cl)CC1)NCCc1c[nH]c2ccccc12 as the molecule, how does the pIC50 (Acetylcholinesterase [9]) read?
Answer: The pIC50 was 4.55.

Question: And the pIC50 (Cholinesterase [10])?
Answer: Its pIC50 is 5.83.

Question: What does the source list for COc1ccc2[nH]cc(CCNC(=O)CC3CCN(Cc4ccc(Cl)cc4)CC3)c2c1?
Answer: pIC50 (Acetylcholinesterase [9]): 4.69; pIC50 (Cholinesterase [10]): 5.19

Question: What does the source list for COc1ccc2[nH]cc(CCNC(=O)CC3CCN(Cc4cccc(Cl)c4)CC3)c2c1?
Answer: pIC50 (Acetylcholinesterase [9]): 5.02; pIC50 (Cholinesterase [10]): 5.36

Question: What does the source list for O=C(NCCc1c[nH]c2ccccc12)C1CCN(Cc2ccccc2)CC1?
Answer: pIC50 (Acetylcholinesterase [9]): 5.26; pIC50 (Cholinesterase [10]): 5.48; pIC50 (Acetylcholinesterase [11]): 5.11; pIC50 (Cholinesterase [12]): 5.70

Question: What does the source list for Cc1cccc(CN2CCC(CC(=O)NCCc3c[nH]c4ccccc34)CC2)c1?
Answer: pIC50 (Acetylcholinesterase [9]): 5.79; pIC50 (Cholinesterase [10]): 6.02; pIC50 (Acetylcholinesterase [11]): 5.33; pIC50 (Cholinesterase [12]): 6.07

Question: With COc1ccc2[nH]cc(CCNC(=O)C3CCN(Cc4ccccc4[N+](=O)[O-])CC3)c2c1 as the molecule, how does the pIC50 (Acetylcholinesterase [9]) read?
Answer: Its pIC50 is 4.27.

Question: What about the pIC50 (Cholinesterase [10]) of the same molecule?
Answer: The pIC50 was 4.55.

Question: With COc1ccc2[nH]cc(CCNC(=O)CC3CCN(Cc4ccccc4Cl)CC3)c2c1 as the molecule, how does the pIC50 (Acetylcholinesterase [9]) read?
Answer: Its pIC50 is 4.77.

Question: And the pIC50 (Cholinesterase [10])?
Answer: The pIC50 was 5.89.

Question: With COc1ccc2[nH]cc(CCNC(=O)CC3CCN(Cc4ccc(C)cc4)CC3)c2c1 as the molecule, how does the pIC50 (Acetylcholinesterase [9]) read?
Answer: The pIC50 was 5.28.

Question: What about the pIC50 (Cholinesterase [10]) of the same molecule?
Answer: The pIC50 was 5.83.

Question: And the pIC50 (Acetylcholinesterase [11])?
Answer: The pIC50 was 5.03.

Question: And the pIC50 (Cholinesterase [12])?
Answer: Its pIC50 is 5.97.

Question: With O=C(CC1CCN(Cc2ccc(Cl)cc2)CC1)NCCc1c[nH]c2ccccc12 as the molecule, how does the pIC50 (Acetylcholinesterase [9]) read?
Answer: Its pIC50 is 4.65.

Question: And the pIC50 (Cholinesterase [10])?
Answer: The pIC50 was 5.28.

Question: With COc1ccc2[nH]cc(CCNC(C)=O)c2c1 as the molecule, how does the Activity (PC-12 [13]) read?
Answer: Its Activity is “Active”.

Question: Which results are given for COc1ccc2[nH]cc(CCNC(=O)C3CCN(Cc4ccccc4)CC3)c2c1?
Answer: pIC50 (Acetylcholinesterase [9]): 5.03; pIC50 (Cholinesterase [10]): 5.09; pIC50 (Acetylcholinesterase [11]): 4.91; pIC50 (Cholinesterase [12]): 5.66
